Patent US7094754B2, “Anti-aging and wound healing compounds” (Kimberly-Clark Worldwide, Inc., priority 2001, dated 2006)

Legend:
pro-MMP-9 = pro-MMP-9 (Homo sapiens, UniProt P14780); assay: Anti-activation (splicing) assay, pro-MMP-9 with stromilysin, HPLC; format: biochemical; details: 0.5 μM or 1.0 μM peptide, 80 minute time course
Protocol: FIG. 12 illustrates the conversion of pro-MMP-9 into N-terminal and C-terminal domains by stromilysin. […] At the times indicated, an aliquot was removed and subjected to HPLC. The pro-MMP peak area was integrated and was set to 100 percent for the zero time point sample.
The assay measures how much proenzyme is converted into mature matrix metalloproteinase. Proenzyme pro-MMP-9 (100 μg) was mixed with 0.5 μg of stromilysin in PBS. The reaction was incubated at 35° C. Aliquots were removed from the reaction over an 80 minute time course. […] The zero (injection) time point was a single peak that elutes from the column in approximately 750 seconds. This peak reduces in size as a function of time, and two new peaks appear. The first peak elutes at approximately 800 seconds, and represents the mature form of MMP-9. The second peak elutes at approximately 1100 seconds, and corresponds to the N-terminal pro-domain fragment. Peak areas were determined by integrating over the elution profile, and the percent area changes were plotted.
The first peak, eluting at approximately 700 seconds, is pro-MMP-9. As the splicing reaction proceeds, this peak decreases in intensity (as marked with the downwards arrow), and two new peaks appear. The first new peak, eluting at approximately 800 seconds, is mature and active MMP-9. The second new peak, eluting at approximately 1050 seconds, is the prodomain. […]

MMP-9 = target: T1, MMP-9 (Homo sapiens, UniProt P14780); assay: Isothermal titration calorimetry with MMP-9; format: binding
T1 construct: Active MMP-9 enzyme was purchased from Calbiochem; purchased Calbiochem
Protocol: Isothermal titration calorimetry (ITC) was performed with a VP-ITC instrument from MicroCal, hIc. Titrations were carried out by injecting 5 μL of an inhibitor peptide solution (at concentration ranges from 0.5 mM to 2.0 mM) into the 1.4 mL stirred reaction cell. […] Titrations were conducted between 20° C. and 40° C. Typical experimental conditions for the titrations were a 10 second injection period followed by a 240 second delay between injections for a total of 40 injections. Blank titrations of inhibitor peptide into buffer were performed in order to correct for heats of dilution and mixing.
The independent set of multiple binding sites is the most common model for binding experiment evaluations. The analytical solution for the total heat is determined by (Freire et al., 1990):
[formula] where Q is the total heat, V is the cell volume, ΔH is the enthalpy, M is the macromolecule concentration (the binding partner in the cell), n is the binding stoichiometry, L is the ligand concentration (the binding partner in the syringe), and K is the association constant. Data were fit to this model using Origin version 5 (MicroCal, Inc.). Surface Plasmon Resonance
The peptide was dissolved in 20 mM cacodylate (pH 6.8), 20 mM NaCl at a final concentration of 1 mM. MMP-9 was dialyzed into the same buffer at a final concentration of 20 μM. […]

[1] = Viability assay (MTT) in EpiDerm skin model; format: cell-based; details: human, EpiDerm skin model (MatTek), relative to PBS control, average over 500 μM and 2 mM, read-out: total average viability
Description: FIG. 16 provides a bar graph showing the percent living cells, relative to a positive control, in a skin model after treatment with two concentrations of peptide. The first sample, treated with phosphate buffered saline (PBS), is the positive control used to establish the cell count representing 100% viability. The second sample is a negative control where cells were exposed to 1% Triton-X100, showing that the assay can detect cell death. […] Data shown represent the average of three tests.
The sample containers were transferred to 6 well plates that contained fresh media. All peptides were dissolved in PBS at a final concentration of 10 mM, and 100 μL each peptide solution was pipetted onto the surface of the Epiderm sample container. Incubation was continued for 12 hours at 37° C., 5% CO2. After the incubation period, the sample containers were washed three times with PBS and the sample containers were transferred to a 24 well plate that contained 300 μL of MTT assay media per well (MTT concentration was 1 mg/mL). The colorimetric assay was allowed to develop for three hours (incubation at 37° C., 5% CO2). Sample containers were then transferred to a 24 well culture plate that contained 2 mL of isopropanol per well. Extraction of the colored precipitate occurred over a period of four hours at room temperature. Absorbance readings were taken at 570 nm and 650 nm for each sample. The percent viability of each sample relative to a PBS control was calculated as: 100×(OD570^sam−OD650^sam)/(OD570^con−OD650^con) (6) Routinely, the peptide sample was assayed in triplicate. Results The sequence of matrix metalloproteinase-2 (SEQ ID NO:14) is provided below to facilitate definition of the various domains and regions in matrix metalloproteinases.

[2] = tested on: wounds in C57BL6/KsJ db/db mice; assay: Wound healing in db/db diabetic mice; format: in vivo
Description: Wounds were created in C57BL6/KsJ db/db mice with a 4 mm biopsy punch. The mice were obtained from The Jackson Laboratories and were aged 3-7 months before the onset of the wounding protocol. All mice were anesthetized prior to wounding. Two wounds were introduced onto the upper back of each animal by pulling the skin away from underlying structures and pushing the punch through the isolated skin. Typically, wounds were created to an average depth of 1.7 mm, with a range of 1.3 to 2.2 mm. No muscle involvement occurred during the course of wounding.
Each day the wounds were digitally photographed and wound areas were determined by computer integration of the photographs. All wound treatments and the subsequent data analyses were performed in a blind manner (see e.g., Brown et al., 1994). Wound area at the time of wounding (day 0) is arbitrarily set to a relative value of 1 for all wounds; such that subsequent wound areas are converted to relative wound areas by dividing the wound area at day n by the wound area at day zero.

[3] = tested on: normal human epidermal keratinocytes (Clonetics, CC-2503); assay: Keratinocyte proliferation assay; format: cell-based; details: 48 hours
Protocol: The proliferative response of these human skin keratinocytes to the 19mer peptide (SEQ ID NO:11) was measured in a 96-well assay system using keratinocyte basal medium (KBM, Clonetics, catalog number CC-3103) as a control. […] The plates were incubated for 24 hours at 37° C. in a humidified 5% CO2 atmosphere. […] In addition, 100 μl of vehicle KBM was added to 10 wells as control. The plate was incubated for 48 hours at 37° C. in a humidified, 5% CO2 atmosphere. After incubation, 20 μl of Cell Titer 96 Aqueous One Solution was added to all wells. The plate was swirled gently and placed back in the incubator for 3 hours. The spectrophotometric absorbance of each well was read at 490 nm. Results were analyzed statistically using one-way ANOVA.

T1 sequence (P14780 107-707 limits assumed): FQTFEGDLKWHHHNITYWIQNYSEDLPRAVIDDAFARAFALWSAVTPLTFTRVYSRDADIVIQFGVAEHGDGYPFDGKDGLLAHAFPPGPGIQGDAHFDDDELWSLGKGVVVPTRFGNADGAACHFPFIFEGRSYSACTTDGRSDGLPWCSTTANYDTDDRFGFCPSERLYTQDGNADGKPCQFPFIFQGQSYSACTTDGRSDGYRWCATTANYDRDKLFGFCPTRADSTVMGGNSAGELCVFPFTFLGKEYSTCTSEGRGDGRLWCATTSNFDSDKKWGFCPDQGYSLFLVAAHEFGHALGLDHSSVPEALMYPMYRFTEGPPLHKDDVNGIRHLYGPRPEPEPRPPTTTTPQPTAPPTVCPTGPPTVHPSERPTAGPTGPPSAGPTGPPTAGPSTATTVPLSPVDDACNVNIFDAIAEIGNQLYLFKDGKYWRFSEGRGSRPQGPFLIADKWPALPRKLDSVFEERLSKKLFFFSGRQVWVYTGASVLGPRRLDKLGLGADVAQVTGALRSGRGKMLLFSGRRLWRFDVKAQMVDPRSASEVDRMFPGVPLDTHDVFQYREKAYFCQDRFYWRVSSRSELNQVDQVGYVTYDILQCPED
Sequence of pro-MMP-9 (P14780 20-707): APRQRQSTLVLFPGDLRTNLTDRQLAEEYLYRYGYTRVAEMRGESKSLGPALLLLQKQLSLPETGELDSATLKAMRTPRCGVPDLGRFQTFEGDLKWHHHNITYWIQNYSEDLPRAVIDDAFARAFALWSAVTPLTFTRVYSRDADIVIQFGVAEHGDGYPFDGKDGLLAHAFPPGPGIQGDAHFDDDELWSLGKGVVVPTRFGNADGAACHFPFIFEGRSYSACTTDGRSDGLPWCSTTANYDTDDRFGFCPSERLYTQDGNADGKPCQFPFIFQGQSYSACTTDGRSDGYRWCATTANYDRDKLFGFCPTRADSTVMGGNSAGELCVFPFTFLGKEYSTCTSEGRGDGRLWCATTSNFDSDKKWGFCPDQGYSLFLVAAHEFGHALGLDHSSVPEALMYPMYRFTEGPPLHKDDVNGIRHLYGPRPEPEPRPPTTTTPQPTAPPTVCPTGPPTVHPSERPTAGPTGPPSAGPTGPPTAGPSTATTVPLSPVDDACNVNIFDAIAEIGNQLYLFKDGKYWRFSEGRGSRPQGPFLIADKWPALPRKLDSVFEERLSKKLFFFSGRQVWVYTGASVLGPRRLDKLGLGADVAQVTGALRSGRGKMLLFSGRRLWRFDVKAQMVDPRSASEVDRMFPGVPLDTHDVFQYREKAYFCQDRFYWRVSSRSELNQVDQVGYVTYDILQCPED

CC(C)[C@H](NC(=O)[C@H](CC(=O)O)NC(=O)[C@@H]1CCCN1C(=O)[C@H](CC(N)=O)NC(=O)CNC(=O)[C@H](CS)NC(=O)[C@H](CCCNC(=N)N)NC(=O)[C@@H]1CCCN1)C(=O)N[C@@H](C)C(=O)N[C@@H](CC(N)=O)C(=O)N[C@@H](Cc1ccc(O)cc1)C(=O)N[C@@H](CC(N)=O)C(=O)N[C@@H](Cc1ccccc1)C(=O)N[C@@H](Cc1ccccc1)C(=O)N1CCC[C@H]1C(=O)N[C@@H](CCCNC(=N)N)C(=O)N[C@@H](CCCCN)C(=O)N1CCC[C@H]1C(=O)N[C@@H](CCCCN)C(=O)O [19-mer]
conversion of pro-MMP-9 into prodomain and active enzyme by stromilysin (pro-MMP-9): prevents the conversion of pro-MMP-9 into the prodomain and the active enzyme | Kd (MMP-9): 606 nM | Stoichiometry (MMP-9; ITC, 1 mM peptide into 20 μM MMP-9, 20 mM cacodylate (pH 6.8), 20 mM NaCl): 0.975 ± 0.02 | viability at 12 h [1]: 97.6% | time to full wound closure (average) ([2]; single dose 5 μL of 20 μg/mL at time of wounding, saline control 14 days): 9 days post wounding | start of wound contraction process ([2]; single dose 5 μL of 20 μg/mL, saline control day 8): 5 days | keratinocyte growth (OD 490 nm) versus control ([3]; 1×10^−4 M): even greater cell growth | keratinocyte growth (OD 490 nm) versus control ([3]; 1×10^−5 M): significantly greater cell density | keratinocyte growth (OD 490 nm) versus control ([3]; 1×10^−6 M): only a small amount of cell proliferation
